Results taken from patent US10166177B2, “Silk protein fragment compositions and articles manufactured therefrom” (Silk, Inc., priority 2013, dated 2019).

What was measured:
Format in all cases: physicochemical
[1] = Gel formation with vitamin C derivatives in 2% silk solution; settings: 100 mg of vitamin C derivative in 15 mL of 2% silk solution
Procedure: The Tables in FIGS. 89A-89B summarize embodiments of gels of the present disclosure. Ascorbic acid-2-glucoside was the most successful vitamin C derivative at gel formation with gel being formed in a 2% silk solution in 3 days. […] In all cases 100 mg of vitamin C derivative was mixed in 15 mL of 2% silk solution, and all gels had the same appearance as gels created with ascorbic acid.
Gels were also cast with combinations of two vitamin C options. In each case, at least one of the vitamin C options was known to cause gelation (L-ascorbic acid or ascorbic acid-2-glucoside). All combination gels were able to gel at 1% total vitamin C additive concentration. […] Without wishing to be bound by theory, it appears there is a relationship between vitamin C concentration, silk concentration, and gelation. An increase in vitamin C at a given concentration of silk will result in a longer time to gelation or inhibit gelation. This may be due to the vitamin C molecule physically blocking interaction between silk protein fragments or cross-linking of silk protein. Modification to pH may allow additional concentrations of vitamin C and derivatives thereof to be added.

[2] = Dissolution of vitamin C derivative in aqueous silk solution
Excerpt: Ascorbyl tetraisopalmitate is a highly viscous, oil soluble liquid that might need the help of an emulsifier to possible dissolve in aqueous silk solution.

[3] = HPLC chromatograms of vitamin C samples (degradation products); settings: after 1 hour at ambient conditions without chemical stabilization
Procedure: FIGS. 36A and 36B show HPLC chromatograms from samples comprising vitamin C. […] No degradation products were visible.
FIGS. 36A and 36B show two HPLC chromatograms from samples comprising vitamin C. […] No degradation products were visible. FIG. 59 is a table summarizing the vitamin C concentration in silk protein fragment-films (2% silk films air dried at RT) of the present disclosure. In FIG. 59 processing conditions included 100° C. extraction for 20 min, RT rinse, LiBr in 60° C. oven for 4-6 hours. FIG. 60 is a table summarizing the stability of vitamin C in chemically stabilized solutions. FIGS. 89A-89B are tables summarizing vitamin C stability in SPF gels without chemical stabilizers as compared to chemically stabilized vitamin C in competitive anti-aging skincare products. […] Without wishing to be bound by theory, it appears there is a relationship between vitamin C concentration, silk concentration, and gelation. An increase in vitamin C at a given concentration of silk will result in a longer time to gelation or inhibit gelation. This may be due to the vitamin C molecule physically blocking interaction between silk protein fragments or cross-linking of silk protein.

Structure (SMILES) | time to gel formation [1] | also measured
O=C1O[C@H]([C@@H](O)CO)C(O)=C1O[C@H]1O[C@H](CO)[C@@H](O)[C@H](O)[C@H]1O [Ascorbic acid-2-glucoside] | 3 days | 
CCCCCCCCC(CCCCCC)C(=O)OC[C@H](OC(=O)C(CCCCCC)CCCCCCCC)[C@H]1OC(=O)C(OC(=O)C(CCCCCC)CCCCCCCC)=C1OC(=O)C(CCCCCC)CCCCCCCC (some centres unmarked) [Ascorbyl tetraisopalmitate] |  | ability to dissolve or be dispersed in aqueous silk solution [2]: unable to dissolve or be dispersed
O=C1O[C@H]([C@@H](O)CO)C([O-])=C1OP(=O)([O-])[O-].[Na+].[Na+].[Na+] [Sodium Ascorbyl Phosphate (Aromantic), Sodium Ascorbyl Phosphate] | failed to create a gel | 
O=C1O[C@H]([C@@H](O)CO)C([O-])=C1OP(=O)([O-])[O-].[Na+].[Na+].[Na+] [Sodium ascorbyl phosphate from DSM, Sodium ascorbyl phosphate] | 28 days | 
O=C1O[C@H]([C@@H](O)CO)C(O)=C1O [vitamin C, L-ascorbic acid] |  | vitamin C degradation products (HPLC) [3]: degradation products are visible
